Measurements published in US20260021193A1, “IMMUNOCONJUGATES AND METHODS” (Immunome, Inc., priority 2022, published 2026).
Where a name gives a salt, the structure may show the parent alone. Read-outs that look alike come from different tables or passages of the source.

Tests used:
Jeko-1 = test: CTG assay of payloads, Jeko-1 cells; assay type: cell-based, human; conditions: 72 h, CellTiter-Glo
Text: (§1) The CTG assay is a method of determining the number of viable cells in culture based on quantitation of the ATP present, an indicator of metabolically active cells. The cell assay requires the addition of a single reagent, Cell Titer Glo, in which cells are lysed and generation of a luminescent signal is produced. The luminescent signal is proportional to the amount of ATP present. The amount of ATP is directly proportional to the number of cells present in culture. For this assay, cells were ensured to be in log-phase for either Jeko-1 or MDA-MB-468. Cells were transferred to 96 wells and treated with compounds in three-fold serial dilution starting from […] (10 points dilution), for 72 h. Cell viability was analyzed with CellTiter-Glo® Luminescent Cell Viability Assay (Promega) following manufactures' instruction. Percentage of viable cells in each compound concentration was determined by normalizing with the luminescence of vehicle control and plotted into percentage of viability versus dose response curve by nonlinear fit in GraphPad Prism software.

[1] = Human hepatocyte clearance (HHEP CL); assay type: in vitro ADME; set-up: CLint scaled / half-life: dose or concentration left out as unconfirmed; conditions: for half-life / CLint scaled: both sexes
Method: Suspensions of human hepatocytes (from 10 mixed gender human donors, final concentration 0.5×10^6 cell/mL) in Williams' E medium were incubated for 90 min with a test compound (0.90% acetonitrile and 0.10% DMSO, final concentration […]) and positive controls (7-Ethoxycoumarin, 7-Hydroxycoumarin, 0.90% acetonitrile and 0.10% DMSO, final concentration […]), with constant shaking at about 600 rpm at 37° C. in an incubator at 5% CO2 and 95% humidity. The total volume of incubation was 200 μl. A sample ([…]) was taken out at T0, 15, 30, 60 and 90 min, which was added intermediately to the ice-cold stop solution (acetonitrile with 200 ng/mL of to butamide and labetalol as internal standard) (125 μl), and vortexed at 500 rpm for 10 min, centrifuged at 3220×g for 20 min at 4° C. Analytical plates were sealed and stored at 4° C. until LCMS analysis. Viability of hepatocytes at pre-incubation was determined to be 84.5%.
(§2) Human liver microsome clearance assay assess metabolism by the cytochrome P450 system (phase I enzymes). These enzymes oxidize substrates by incorporating oxygen atoms into hydrocarbons, thus causing the introduction of hydroxyl groups, or N- O- and S-dealkylation of substrates and forming more polar products easier to be cleared. Human hepatocyte clearance assay measures more broadly the overall cellular metabolism of the test compound (phase I and phase II enzyme pathways). Phase II enzymes catalyze the conjugation reaction of xenobiotic metabolites and charged species, such as glutathione, sulfate, glycine, or glucuronic acid to form even more polar compounds for easier clearance.

[2] = Human liver microsome clearance (HLM CL); assay type: in vitro ADME; set-up: CLint scaled / half-life: dose or concentration left out as unconfirmed
Method: Working solution was prepared by adding 5 μL of compound and control stock solution (10 mM in dimethyl sulfoxide, DMSO) to 495 μL of acetonitrile (ACN) (intermediate solution concentration: 100 μM, 99% CAN and 1% DMSO. The appropriate concentrations of microsome working solutions were prepared in 100 mM potassium phosphate buffer. After reaction plates containing mixtures of compound and microsomes were pre-incubated at 37° C. for 10 min, […] of 2 mM of NADPH and 2 mM of MgCl2 solution was added to start the reaction. The final concentrations of incubation medium were as follows: microsome—0.5 mg protein/mL, test compound/control […], NADPH—1 mM, MgCl2—1 mM, acetonitrile 0.99%, DMSO 0.01%. Incubations were performed at 37° C. for 60 min. Samples were taken out at T0, T5, T15, T30, T45 and T60, which was added intermediately to the ice-cold stop solution (acetonitrile with 200 ng/mL of to butamide and labetalol as internal standard) (125 μl), shaken for 10 min, centrifuged at 4000 rpm for 20 min at 4° C. Analytical plates were analyzed by LCMS.
as §2

[3] = PAMPA (Parallel Artificial Membrane Permeability Assay); assay type: physicochemical; set-up: dose or concentration left out as unconfirmed
Text: PAMPA is a method which determines the permeability of substances from a donor compartment, through a lipid-infused artificial membrane into an acceptor compartment. See Ottaviani, G.; Martel, S.; Carrupt, P-A. “Parallel Artificial Membrane Permeability Assay: A New Membrane for the Fast Prediction of Passive Human Skin Permeability”, Journal of Medicinal Chemistry, 2006, 49 (13), 3948-3954). A multi-well microtitre plate is used for the donor and a membrane/acceptor compartment is placed on top; the whole assembly is commonly referred to as a “sandwich”. At the beginning of the test, the drug is added to the donor compartment, and the acceptor compartment is drug-free. After an incubation period which may include stirring, the sandwich is separated, and the amount of drug is measured in each compartment. Mass balance allows calculation of drug that remains in the membrane.
The PAMPA was performed by Pion Inc using the GIT-0 lipid and 5 mM donor solution in pH 5.0 and pH 7.4 PRISMA buffer (containing 0.05% DMSO). The higher PAMPA data has been associated with better bystander killing. (Ogitani Y.; Hagihara K.; Oitate, M.; Naito, H.; Agatsuma T. “Bystander killing effect of DS-8201a, a novel anti-human epidermal growth factor receptor 2 antibody-drug conjugate, in tumors with human epidermal growth factor receptor 2 heterogeneity” Cancer Science, 2016, 107 (7), 1039-1046).

MDA-MB-468 = test: CTG assay of payloads, MDA-MB-468 cells; assay type: cell-based, human; conditions: Table 1, 72 h, CellTiter-Glo
Text: as §1

SMILES | IC50 (Jeko-1; Homo sapiens, JeKo-1, Table 2) [nM] | half-life ([1]; human, hepatocytes) [min] | half-life ([2]; human, microsomes) [min] | Papp ([3]; pH 5) [×10⁻⁶ cm/s] | Papp ([3]; pH 7.4) [×10⁻⁶ cm/s] | also measured
CC[C@@]1(O)C(=O)OCc2c1cc1n(c2=O)Cc2c-1nc1cc(F)c(C)c3c1c2[C@@](C)(COCCO)CC3 (single isomer, unassigned) [Compound 16-83] | 1.1 | 113 | 25.7 | 47.7 | 25.1 | 
CC[C@@]1(O)C(=O)OCc2c1cc1n(c2=O)Cc2c-1nc1cc(F)c(C)c3c1c2[C@@](C)(CCCO)CC3 (single isomer, unassigned) [Compound 15-76] | 0.27 | 40.8 | 5.2 | 45.5 | 33.2 | 
CC[C@@]1(O)C(=O)OCc2c1cc1n(c2=O)Cc2c-1nc1cc(F)c(C)c3c1c2[C@](C)(CCO)CC3 (single isomer, unassigned) [Compound 14-70] | 0.79 | 53.6 | 18.4 | 44.2 | 28.5 | 
CC[C@@]1(O)C(=O)OCc2c1cc1n(c2=O)Cc2c-1nc1cc(F)c(C)c3c1c2[C@@](C)(CCO)CC3 (single isomer, unassigned) [Compound 14-71] | 0.18 | 47 | 10.8 | 25 | 17.3 | 
CC[C@@]1(O)C(=O)OCc2c1cc1n(c2=O)Cc2c-1nc1cc(F)c(C)c3c1c2[C@@](C)(N(C)CCO)CC3.Cl (single isomer, unassigned) [Compound 6-44, hydrochloride] |  |  |  |  |  | IC50 (Jeko-1; Homo sapiens, JeKo-1, Table 1): 24.1 nM; IC50 (MDA-MB-468; Homo sapiens, MDA-MB-468): 198 nM; CLint scaled ([1]; Table 1, human hepatocytes intrinsic clearance, read-out: HHEP Cl): 48.3 mL/min/kg; CLint scaled ([2]; microsomes, Table 1, human liver microsome clearance, read-out: HLM Cl): 51.7 mL/min/kg
CC[C@@]1(O)C(=O)OCc2c1cc1n(c2=O)Cc2c-1nc1cc(F)c(C)c3c1c2[C@@](C)(N(C)CCO)CC3.Cl (single isomer, unassigned) [Compound 6-44] |  |  |  |  |  | half-life ([1]; Table 1, human hepatocytes, read-out: HHEP (T1/2)): 80 min; half-life ([2]; Table 1, human liver microsomes, read-out: HLM (T1/2)): 24 min; Papp ([3]; Table 1, pH 5.0, read-out: PAMPA Pe pH 5.0): 54.9 ×10⁻⁶ cm/s; Papp ([3]; Table 1, pH 7.4, read-out: PAMPA Pe pH 7.4): 8.3 ×10⁻⁶ cm/s
CC[C@@]1(O)C(=O)OCc2c1cc1n(c2=O)Cc2c-1nc1cc(F)c(C)c3c1c2C(CO)(CO)CC3 [Compound 2-20, (S)-9-ethyl-5-fluoro-9-hydroxy-1,1-bis(hydroxymethyl)-4-methyl-2,3,12,15-tetrahydrobenzo [de]pyrano[3′,4′:6,7]indolizino[1,2-b]quinoline-10,13(1H,9H)-dione] |  | 161 | 27 |  |  | IC50 (Jeko-1; Homo sapiens, JeKo-1, Table 1): 40.8 nM; IC50 (MDA-MB-468; Homo sapiens, MDA-MB-468): 351 nM; CLint scaled ([1]; human, hepatocytes): 24 mL/min/kg; CLint scaled ([2]; human, microsomes): 46 mL/min/kg
CC[C@@]1(O)C(=O)OCc2c1cc1n(c2=O)Cc2c-1nc1cc(F)c(C)c3c1c2[C@H](CCCO)CC3 (single isomer, unassigned) [Compound 13-63] | 0.44 | 141 | 27.1 | 34.7 | 32.9 | 
CC[C@@]1(O)C(=O)OCc2c1cc1n(c2=O)Cc2c-1nc1cc(F)c(C)c3c1c2[C@H](CCO)CC3 (single isomer, unassigned) [Compound 12-58] | 0.24 | 68.1 | 20.1 | 2.9 | 3.8 | 
CC[C@@]1(O)C(=O)OCc2c1cc1n(c2=O)Cc2c-1nc1cc(F)c(C)c3c1c2[C@@H](CO)CC3 (single isomer, unassigned) [Compound 1-17] |  | 215 | 23.5 | 74.7 | 7.8 | IC50 (Jeko-1; Homo sapiens, JeKo-1, Table 1): 1 nM; IC50 (MDA-MB-468; Homo sapiens, MDA-MB-468): 7.7 nM; CLint scaled ([1]; human, hepatocytes): 17.9 mL/min/kg; CLint scaled ([2]; human, microsomes): 53.2 mL/min/kg
CC[C@@]1(O)C(=O)OCc2c1cc1n(c2=O)Cc2c-1nc1cc(F)c(C)c3c1c2[C@](C)(N(C)CCO)CC3 (single isomer, unassigned) [Compound 7-45, hydrochloride] |  | 42 | 9 | 56.6 | 7.5 | IC50 (Jeko-1; Homo sapiens, JeKo-1, Table 1): 33.5 nM; IC50 (MDA-MB-468; Homo sapiens, MDA-MB-468): 258 nM; CLint scaled ([1]; human, hepatocytes): 92.2 mL/min/kg; CLint scaled ([2]; human, microsomes): 137 mL/min/kg
CC[C@@]1(O)C(=O)OCc2c1cc1n(c2=O)Cc2c-1nc1cc(F)c(C)c3c1c2[C@@H](CCO)CC3 (single isomer, unassigned) [Compound 12-59] | 0.32 | 64.3 | 20.1 | 46.9 | 33.4 | 
CC[C@@]1(O)C(=O)OCc2c1cc1n(c2=O)Cc2c-1nc1cc(F)c(C)c3c1c2[C@](C)(COCCO)CC3 (single isomer, unassigned) [Compound 16-82] | 0.64 | 45 | 5.6 | 54.8 | 25.5 | 
CC[C@@]1(O)C(=O)OCc2c1cc1n(c2=O)Cc2c-1nc1cc(F)c(C)c3c1c2[C@@H](NC(=O)CO)CC3 [Dxd, reference compound] |  |  |  |  |  | IC50 (Jeko-1; Table 1): 1.42 nM; IC50 (Jeko-1; Table 2): 0.52 nM; IC50 (MDA-MB-468): 11.6 nM; HHEP (T1/2) ([1]; Table 1, human hepatocytes): (217) min; HHEP Cl ([1]; Table 1, human hepatocytes intrinsic clearance): 17.8 mL/min/kg; HHEP Cl (T1/2) ([1]; Table 2, one value per cell): >217; HLM Cl ([2]; Table 1, human liver microsome clearance): 8.6 mL/min/kg; HLM (T1/2) ([2]; Table 1, human liver microsomes): (>145); HLM Cl (T1/2) ([2]; Table 2, one value per cell): 52.2
CC[C@@]1(O)C(=O)OCc2c1cc1n(c2=O)Cc2c-1nc1cc(F)c(C)c3c1c2[C@](C)(CCCO)CC3 (single isomer, unassigned) [Compound 15-75] | 0.88 | 76.5 | 22.4 | 16.5 | 11.5 | 
C=CC[C@H]1CCc2c(C)c(F)cc3nc4c(c1c23)Cn1c-4cc2c(c1=O)COC(=O)[C@]2(O)CC (single isomer, unassigned) [Compound 17-87] | 0.58 | 31 | 5.4 |  |  | 
C=CC[C@@H]1CCc2c(C)c(F)cc3nc4c(c1c23)Cn1c-4cc2c(c1=O)COC(=O)[C@]2(O)CC (single isomer, unassigned) [Compound 17-86] | 0.93 | 46 | 13 |  |  | 
CC[C@@]1(O)C(=O)OCc2c1cc1n(c2=O)Cc2c-1nc1cc(F)c(C)c3c1c2[C@@H](CCCO)CC3 (single isomer, unassigned) [Compound 13-64] | 0.28 | 79.4 | 22 | 14.6 | 10.6 | 
